Laboratory results: patent US9757596B2, “Composition comprising at least 3 different diols” (AMBRIA DERMATOLOGY AB, priority 2004, dated 2017)

Tests used:
Format in all cases: cell-based
M. sympodialis CBS 7222 = test: Test for bacteriostatic effect (MIC) in agar medium, M. sympodialis; conditions: 10^7 cells/ml, DST agar, 37° C., analysed after 1 and 2 days; combinations: % of each diol
Method: (§1) Staphylococcus aureus number 515×6352 and Candida albicans H 29 were obtained from the Collection in the Department of Microbiology, […] University Hospital, Gothenburg, Sweden. The isolates were maintained on blood agar at 37° C. M. sympodialis CBS 7222 and M. globosa CBS 7966 Test for bacteriostatic effect (MIC=minimal inhitory concentration). […] Plates were incubated at 37° C. and analysed after 1 and 2 days. Each experiment was repeated.

[1] = tested on: Staphylococcus aureus number 515×6352; test: Test for bacteriostatic effect (MIC) in agar medium, S. aureus; conditions: combinations: % of each diol; for MIC S. aureaus 10^3: 10^3 cells/ml; for MIC S. aureaus 10^3 / MIC S. aureaus 10^5: DST agar, 37° C., analysed after 1 and 2 days; for MIC S. aureaus 10^5: 10^5 cells/ml; for concentration that completely inhibited the growth of S. aureus: cell concentration not specified
Method: (§2) Staphylococcus aureus number 515×6352 and Candida albicans H 29 were obtained from the Collection in the Department of Microbiology, Sahigrenska University Hospital, Gothenburg, Sweden. The isolates were maintained on blood agar at 37° C. M. sympodialis CBS 7222 and M. globosa CBS 7966
(§3) Test for bacteriostatic effect (MIC=minimal inhitory concentration).
(§4) Each of the diols and their combination (1:1:1 volume/volume) was diluted directly with the test culture medium, Diagnostic Sensitivity test agar (DST) (Oxoid, UK) to obtain concentrations, in the test medium, of 2, 3, 4, 6, 9, and 12% volume percent of the respective diol and of 2, 3, and 4% of the respective diol in the combination.
S. aureus cells were added to the agar medium in concentrations of 10^3 and 10^5 cells/ml while C. albicans cells were added in a concentration of 10^6 cells/ml and M. sympodialis and M. globosa in a concentration of 10^7 cells/ml. Plates were incubated at 37° C. and analysed after 1 and 2 days. Each experiment was repeated. […] The MIC's for propane-1,2-diol, pentane-1,5-diol, 2-methylpentane-2,4-diol and the combination of these 3 diols are shown in the table 1. […]

Candida albicans H 29 = test: Test for bacteriostatic effect (MIC) in agar medium, C. albicans; conditions: 10^6 cells/ml, DST agar, 37° C., analysed after 1 and 2 days; combinations: % of each diol
Method: as §2, §3, §4
S. aureus cells were added to the agar medium in concentrations of 10^3 and 10^5 cells/ml while C. albicans cells were added in a concentration of 10^6 cells/ml and M. sympodialis and M. globosa in a concentration of 10^7 cells/ml. Plates were incubated at 37° C. and analysed after 1 and 2 days. Each experiment was repeated. […] The MIC's for propane-1,2-diol, pentane-1,5-diol, 2-methylpentane-2,4-diol and the combination of these 3 diols are shown in the table 1.
Example 3 was performed as example 1.

M. globosa CBS 7966 = test: Test for bacteriostatic effect (MIC) in agar medium, M. globosa; conditions: 10^7 cells/ml, DST agar, 37° C., analysed after 1 and 2 days; combinations: % of each diol
Method: as §1

Compound | MIC M. sympodialis (M. sympodialis CBS 7222) [%] | MIC S. aureaus 10^3 [1] [%] | MIC S. aureaus 10^5 [1] [%] | MIC C. albicans 10^6 (Candida albicans H 29) [%] | MIC M. globosa (M. globosa CBS 7966) [%] | concentration that completely inhibited the growth of S. aureus [1] [%]
CC(O)CO (stereo not drawn) [Propane-1,2-diol] | 10 | >12 | >12 | 9 | 10 | –
CCO [Ethanol] | 10 | >12 | >12 | 8 | 10 | –
OCCCCCO [Pentane-1,5-diol] | 3 | 12 | 12 | 4 | 3 | 12
CC(O)CC(C)(C)O (stereo not drawn) [2-Methyl pentane-2,4-diol] | 3 | 12 | 12 | 4 | 3 | 12
CC(O)CCO (stereo not drawn) [Butane-1,3-diol] | 10 | >12 | >12 | 8 | 10 | –
